Results published in publication PMC12621043, “Un-LOK-ing a New Approach for Conformational Selective Targeting of STK10 (LOK)” (ACS Medicinal Chemistry Letters, 2025).

Experiments:
MAPK10A = molecular target: T1, MAPK10A (Homo sapiens, UniProt P53779); assay: DSF Tm panel; format: binding; conditions: 10 μM compound
T1 construct: purchased in-house DSF kinase panel (SGC-style construct names; the trailing letter is the construct ID)

AKT3A = molecular target: T2, AKT3A (Homo sapiens, UniProt Q9Y243); assay: DSF Tm panel; format: binding; conditions: 10 μM compound
T2 construct: purchased in-house DSF kinase panel (SGC-style construct names; the trailing letter is the construct ID)
T2 sequence (Q9Y243 148-479): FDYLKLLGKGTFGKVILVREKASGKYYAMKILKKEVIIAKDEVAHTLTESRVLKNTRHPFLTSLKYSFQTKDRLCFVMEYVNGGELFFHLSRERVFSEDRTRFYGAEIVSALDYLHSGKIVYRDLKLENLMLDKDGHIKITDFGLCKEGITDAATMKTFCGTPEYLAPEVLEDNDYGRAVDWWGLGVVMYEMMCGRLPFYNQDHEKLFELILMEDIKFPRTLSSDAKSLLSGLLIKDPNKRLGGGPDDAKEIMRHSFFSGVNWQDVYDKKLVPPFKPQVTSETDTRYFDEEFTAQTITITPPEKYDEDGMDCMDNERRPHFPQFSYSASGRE

AAK1 (AAK1A) = molecular target: T3, AAK1 (AAK1A) (Homo sapiens, UniProt Q2M2I8); assay: DSF Tm panel; format: binding; conditions: 10 μM compound
T3 construct: purchased in-house DSF kinase panel (SGC-style construct names; the trailing letter is the construct ID)
T3 sequence (Q2M2I8 27-365): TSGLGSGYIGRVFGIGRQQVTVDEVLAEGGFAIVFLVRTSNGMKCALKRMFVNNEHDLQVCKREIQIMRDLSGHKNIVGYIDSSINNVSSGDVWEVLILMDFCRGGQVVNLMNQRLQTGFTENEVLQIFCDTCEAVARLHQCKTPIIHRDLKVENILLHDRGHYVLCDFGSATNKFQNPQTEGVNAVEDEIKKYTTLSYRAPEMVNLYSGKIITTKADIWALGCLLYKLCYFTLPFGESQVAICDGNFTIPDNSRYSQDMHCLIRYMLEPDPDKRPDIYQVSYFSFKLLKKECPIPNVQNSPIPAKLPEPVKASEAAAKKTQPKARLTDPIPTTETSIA

MST3A = molecular target: T4, MST3A (Homo sapiens, UniProt Q9Y6E0); assay: DSF Tm panel; format: binding; conditions: 10 μM compound
T4 construct: purchased in-house DSF kinase panel (SGC-style construct names; the trailing letter is the construct ID)
T4 sequence (Q9Y6E0 whole entry): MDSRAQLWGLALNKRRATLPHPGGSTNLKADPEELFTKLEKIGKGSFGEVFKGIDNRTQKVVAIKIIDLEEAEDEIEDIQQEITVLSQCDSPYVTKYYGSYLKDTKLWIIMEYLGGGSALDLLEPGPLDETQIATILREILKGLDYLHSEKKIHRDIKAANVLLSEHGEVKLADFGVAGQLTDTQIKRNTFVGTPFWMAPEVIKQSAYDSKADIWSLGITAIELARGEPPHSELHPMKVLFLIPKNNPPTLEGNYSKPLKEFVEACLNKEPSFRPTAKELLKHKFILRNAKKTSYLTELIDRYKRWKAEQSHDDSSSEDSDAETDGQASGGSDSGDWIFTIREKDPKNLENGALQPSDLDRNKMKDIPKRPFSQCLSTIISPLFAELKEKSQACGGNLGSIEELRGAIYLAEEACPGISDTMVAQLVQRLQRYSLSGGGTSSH

RPS6KA1A = assay: DSF Tm panel; format: binding; conditions: 10 μM compound
STK4 (STK4A) = molecular target: T5, STK4 (STK4A) (Homo sapiens, UniProt Q13043); assay: DSF Tm panel; format: binding; conditions: 10 μM compound
T5 construct: purchased in-house DSF kinase panel (SGC-style construct names; the trailing letter is the construct ID)
T5 sequence (Q13043 1-311): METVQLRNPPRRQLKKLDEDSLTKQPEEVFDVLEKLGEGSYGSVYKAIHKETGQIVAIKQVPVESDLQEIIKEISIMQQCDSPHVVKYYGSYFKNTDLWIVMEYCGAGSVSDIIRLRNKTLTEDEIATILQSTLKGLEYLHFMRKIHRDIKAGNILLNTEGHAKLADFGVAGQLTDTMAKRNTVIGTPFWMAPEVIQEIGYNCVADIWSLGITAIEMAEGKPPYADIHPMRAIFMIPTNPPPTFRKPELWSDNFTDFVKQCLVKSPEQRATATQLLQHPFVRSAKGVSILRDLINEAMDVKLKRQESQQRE

NEK1A = molecular target: T6, NEK1A (Homo sapiens, UniProt Q96PY6); assay: DSF Tm panel; format: binding; conditions: 10 μM compound
T6 construct: purchased in-house DSF kinase panel (SGC-style construct names; the trailing letter is the construct ID)
T6 sequence (Q96PY6 1-328): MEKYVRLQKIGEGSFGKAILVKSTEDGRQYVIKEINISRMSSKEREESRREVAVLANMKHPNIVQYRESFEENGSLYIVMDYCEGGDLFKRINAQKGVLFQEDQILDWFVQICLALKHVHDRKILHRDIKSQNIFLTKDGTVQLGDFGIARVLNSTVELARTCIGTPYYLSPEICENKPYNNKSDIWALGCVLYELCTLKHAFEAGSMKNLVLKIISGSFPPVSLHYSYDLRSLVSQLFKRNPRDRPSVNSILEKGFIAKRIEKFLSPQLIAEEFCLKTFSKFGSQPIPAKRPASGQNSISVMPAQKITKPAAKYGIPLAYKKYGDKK

DYRK1AA = molecular target: T7, DYRK1AA (Homo sapiens, UniProt Q13627); assay: DSF Tm panel; format: binding; conditions: 10 μM compound
T7 construct: purchased in-house DSF kinase panel (SGC-style construct names; the trailing letter is the construct ID)

STK17BA = molecular target: T8, STK17BA (Homo sapiens, UniProt O94768); assay: DSF Tm panel; format: binding; conditions: 10 μM compound
T8 construct: purchased in-house DSF kinase panel (SGC-style construct names; the trailing letter is the construct ID)
T8 sequence (O94768 25-329): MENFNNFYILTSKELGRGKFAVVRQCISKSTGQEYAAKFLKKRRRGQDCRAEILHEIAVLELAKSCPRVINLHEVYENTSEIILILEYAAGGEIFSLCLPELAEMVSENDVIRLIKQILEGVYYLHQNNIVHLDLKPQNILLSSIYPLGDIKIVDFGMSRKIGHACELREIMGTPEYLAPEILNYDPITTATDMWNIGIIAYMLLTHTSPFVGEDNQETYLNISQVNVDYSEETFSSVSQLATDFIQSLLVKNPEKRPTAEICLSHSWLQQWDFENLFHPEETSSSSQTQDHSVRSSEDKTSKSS

MAP3K5A = molecular target: T9, MAP3K5A (Homo sapiens, UniProt Q99683); assay: DSF Tm panel; format: binding; conditions: 10 μM compound
T9 construct: purchased in-house DSF kinase panel (SGC-style construct names; the trailing letter is the construct ID)
T9 sequence (Q99683 659-951): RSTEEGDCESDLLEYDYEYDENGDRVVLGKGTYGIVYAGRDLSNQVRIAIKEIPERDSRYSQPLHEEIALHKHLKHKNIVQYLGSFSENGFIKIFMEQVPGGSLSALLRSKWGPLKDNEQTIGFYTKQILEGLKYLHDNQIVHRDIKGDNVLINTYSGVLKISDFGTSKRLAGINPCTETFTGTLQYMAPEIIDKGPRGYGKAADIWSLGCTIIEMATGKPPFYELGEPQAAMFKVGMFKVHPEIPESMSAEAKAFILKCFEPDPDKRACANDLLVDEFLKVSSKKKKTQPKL

CDC42BPAA = assay: DSF Tm panel; format: binding; conditions: 10 μM compound
MELKA = molecular target: T10, MELKA (Homo sapiens, UniProt Q14680); assay: DSF Tm panel; format: binding; conditions: 10 μM compound
T10 construct: purchased in-house DSF kinase panel (SGC-style construct names; the trailing letter is the construct ID)
T10 sequence (Q14680 1-340): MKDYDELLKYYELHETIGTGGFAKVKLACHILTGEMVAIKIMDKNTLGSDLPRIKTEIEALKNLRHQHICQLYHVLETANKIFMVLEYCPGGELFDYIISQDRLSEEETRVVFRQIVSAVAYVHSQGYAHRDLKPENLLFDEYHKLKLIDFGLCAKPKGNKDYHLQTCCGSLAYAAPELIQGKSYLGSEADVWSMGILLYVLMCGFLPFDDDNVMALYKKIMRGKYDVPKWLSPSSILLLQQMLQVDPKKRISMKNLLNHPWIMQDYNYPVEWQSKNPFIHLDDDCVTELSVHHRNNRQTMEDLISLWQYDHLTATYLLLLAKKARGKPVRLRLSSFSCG

ABL1 (ABL1A) = molecular target: T11, ABL1 (ABL1A) (Homo sapiens, UniProt P00519); assay: DSF Tm panel; format: binding; conditions: 10 μM compound
T11 construct: purchased in-house DSF kinase panel (SGC-style construct names; the trailing letter is the construct ID)
T11 sequence (P00519 229-512): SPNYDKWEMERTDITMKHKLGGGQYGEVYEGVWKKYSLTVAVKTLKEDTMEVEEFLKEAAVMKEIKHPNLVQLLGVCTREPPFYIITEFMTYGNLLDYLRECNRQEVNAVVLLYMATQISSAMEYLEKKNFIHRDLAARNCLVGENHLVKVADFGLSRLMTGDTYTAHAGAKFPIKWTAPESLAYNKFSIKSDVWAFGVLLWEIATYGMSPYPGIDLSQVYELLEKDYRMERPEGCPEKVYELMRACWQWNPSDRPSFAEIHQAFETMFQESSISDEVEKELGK

MST4A = molecular target: T12, MST4A (Homo sapiens, UniProt Q9P289); assay: DSF Tm panel; format: binding; conditions: 10 μM compound
T12 construct: purchased in-house DSF kinase panel (SGC-style construct names; the trailing letter is the construct ID)
T12 sequence (Q9P289 1-300): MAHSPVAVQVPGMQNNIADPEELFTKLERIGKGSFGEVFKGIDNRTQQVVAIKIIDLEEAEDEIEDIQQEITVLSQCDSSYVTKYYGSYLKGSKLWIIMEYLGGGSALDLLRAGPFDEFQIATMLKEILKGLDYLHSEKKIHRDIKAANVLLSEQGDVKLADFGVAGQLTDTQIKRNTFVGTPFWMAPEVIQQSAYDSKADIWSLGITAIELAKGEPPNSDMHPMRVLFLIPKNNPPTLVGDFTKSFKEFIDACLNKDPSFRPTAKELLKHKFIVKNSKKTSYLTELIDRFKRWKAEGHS

UKL3A (ULK3A) = molecular target: T13, UKL3A (ULK3A) (Homo sapiens, UniProt Q6PHR2); assay: DSF Tm panel; format: binding; conditions: 10 μM compound
T13 construct: purchased in-house DSF kinase panel (SGC-style construct names; the trailing letter is the construct ID)
T13 sequence (Q6PHR2 1-279): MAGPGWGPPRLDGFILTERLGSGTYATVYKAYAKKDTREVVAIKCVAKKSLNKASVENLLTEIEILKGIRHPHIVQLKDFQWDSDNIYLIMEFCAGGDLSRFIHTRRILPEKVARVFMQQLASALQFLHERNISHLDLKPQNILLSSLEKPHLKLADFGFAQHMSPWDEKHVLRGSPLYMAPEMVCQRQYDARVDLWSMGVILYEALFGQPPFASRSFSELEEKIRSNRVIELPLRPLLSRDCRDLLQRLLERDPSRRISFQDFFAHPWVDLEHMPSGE

SLK = SLK (Homo sapiens, UniProt Q9H2G2); assay: NanoBRET target engagement assay; format: cell-based; parameters: has a greater impact on the full-length protein than on the kinase domains; host or cells: HEK293T (ATCC CRL-3216); conditions: HEK293T cells
Chain of SLK (Q9H2G2 whole entry, the tested form may be a part): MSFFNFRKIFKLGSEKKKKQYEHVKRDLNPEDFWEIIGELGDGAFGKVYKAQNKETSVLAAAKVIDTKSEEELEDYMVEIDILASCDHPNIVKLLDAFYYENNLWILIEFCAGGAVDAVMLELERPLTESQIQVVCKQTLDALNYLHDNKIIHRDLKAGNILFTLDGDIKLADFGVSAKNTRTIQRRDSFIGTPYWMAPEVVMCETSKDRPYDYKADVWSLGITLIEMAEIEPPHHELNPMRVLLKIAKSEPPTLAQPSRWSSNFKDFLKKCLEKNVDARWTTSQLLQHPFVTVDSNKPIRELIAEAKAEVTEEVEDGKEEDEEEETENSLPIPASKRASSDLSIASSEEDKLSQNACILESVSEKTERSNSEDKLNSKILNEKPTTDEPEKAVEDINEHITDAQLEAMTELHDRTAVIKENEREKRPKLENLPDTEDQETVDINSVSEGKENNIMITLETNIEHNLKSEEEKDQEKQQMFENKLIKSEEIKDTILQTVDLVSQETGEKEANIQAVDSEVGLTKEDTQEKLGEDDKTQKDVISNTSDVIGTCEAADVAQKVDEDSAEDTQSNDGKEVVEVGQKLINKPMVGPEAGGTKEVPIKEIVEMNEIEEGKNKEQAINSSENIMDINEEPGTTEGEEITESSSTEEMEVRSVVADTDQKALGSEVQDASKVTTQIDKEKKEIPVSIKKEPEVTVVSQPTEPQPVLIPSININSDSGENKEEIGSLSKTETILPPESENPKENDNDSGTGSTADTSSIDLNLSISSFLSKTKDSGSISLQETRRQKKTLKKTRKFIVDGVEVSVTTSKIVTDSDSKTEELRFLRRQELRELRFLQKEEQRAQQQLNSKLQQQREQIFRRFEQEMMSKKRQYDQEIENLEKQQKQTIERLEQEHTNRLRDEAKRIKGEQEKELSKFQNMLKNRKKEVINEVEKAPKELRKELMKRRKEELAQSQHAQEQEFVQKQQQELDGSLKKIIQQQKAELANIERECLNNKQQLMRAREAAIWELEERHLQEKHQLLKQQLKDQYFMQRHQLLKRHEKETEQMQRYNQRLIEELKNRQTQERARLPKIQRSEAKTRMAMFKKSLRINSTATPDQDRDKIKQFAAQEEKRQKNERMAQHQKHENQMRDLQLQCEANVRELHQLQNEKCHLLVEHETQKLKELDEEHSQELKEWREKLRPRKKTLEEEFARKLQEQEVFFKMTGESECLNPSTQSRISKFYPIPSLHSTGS

MAPK15A (MAPK15HSD) = molecular target: T14, MAPK15A (MAPK15HSD) (Homo sapiens, UniProt Q8TD08); assay: DSF Tm panel; format: binding; conditions: 10 μM compound
T14 sequence (Q8TD08 13-304 limits assumed): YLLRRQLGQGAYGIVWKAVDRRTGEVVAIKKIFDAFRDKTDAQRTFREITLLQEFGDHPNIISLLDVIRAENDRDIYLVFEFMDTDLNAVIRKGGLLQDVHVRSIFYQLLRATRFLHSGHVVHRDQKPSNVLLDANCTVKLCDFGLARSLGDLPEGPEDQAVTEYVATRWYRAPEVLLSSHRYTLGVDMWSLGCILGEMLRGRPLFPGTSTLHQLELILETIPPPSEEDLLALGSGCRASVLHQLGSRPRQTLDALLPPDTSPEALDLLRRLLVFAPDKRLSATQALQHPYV

SRPK1A = molecular target: T15, SRPK1A (Homo sapiens, UniProt Q96SB4); assay: DSF Tm panel; format: binding; conditions: 10 μM compound
T15 construct: purchased in-house DSF kinase panel (SGC-style construct names; the trailing letter is the construct ID)
T15 sequence (Q96SB4 80-653): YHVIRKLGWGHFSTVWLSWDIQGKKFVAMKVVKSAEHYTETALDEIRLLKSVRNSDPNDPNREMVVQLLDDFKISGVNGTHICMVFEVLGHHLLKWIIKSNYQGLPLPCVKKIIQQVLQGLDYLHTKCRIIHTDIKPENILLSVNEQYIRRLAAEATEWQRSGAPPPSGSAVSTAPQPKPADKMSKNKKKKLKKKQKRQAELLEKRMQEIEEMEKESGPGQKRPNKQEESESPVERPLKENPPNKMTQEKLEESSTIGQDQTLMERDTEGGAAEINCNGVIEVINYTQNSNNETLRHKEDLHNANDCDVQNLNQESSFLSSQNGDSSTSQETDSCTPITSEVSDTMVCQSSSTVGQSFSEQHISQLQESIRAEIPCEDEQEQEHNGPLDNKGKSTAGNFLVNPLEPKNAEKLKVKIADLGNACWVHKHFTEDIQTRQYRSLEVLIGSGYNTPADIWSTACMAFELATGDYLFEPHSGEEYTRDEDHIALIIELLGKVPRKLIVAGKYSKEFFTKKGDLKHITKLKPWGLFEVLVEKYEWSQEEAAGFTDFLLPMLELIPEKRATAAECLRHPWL

CAMKK2B = molecular target: T16, CAMKK2B (Homo sapiens, UniProt Q96RR4); assay: DSF Tm panel; format: binding; conditions: 10 μM compound
T16 construct: purchased in-house DSF kinase panel (SGC-style construct names; the trailing letter is the construct ID)
T16 sequence (Q96RR4 161-449): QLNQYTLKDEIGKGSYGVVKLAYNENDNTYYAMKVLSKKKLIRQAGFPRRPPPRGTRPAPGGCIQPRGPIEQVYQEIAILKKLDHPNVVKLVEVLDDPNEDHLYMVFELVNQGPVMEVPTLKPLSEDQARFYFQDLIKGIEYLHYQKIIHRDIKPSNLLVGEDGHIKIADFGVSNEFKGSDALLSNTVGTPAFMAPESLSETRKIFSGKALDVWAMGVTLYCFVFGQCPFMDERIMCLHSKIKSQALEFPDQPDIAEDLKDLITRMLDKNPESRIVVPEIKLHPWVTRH

T1 sequence (P53779 39-402): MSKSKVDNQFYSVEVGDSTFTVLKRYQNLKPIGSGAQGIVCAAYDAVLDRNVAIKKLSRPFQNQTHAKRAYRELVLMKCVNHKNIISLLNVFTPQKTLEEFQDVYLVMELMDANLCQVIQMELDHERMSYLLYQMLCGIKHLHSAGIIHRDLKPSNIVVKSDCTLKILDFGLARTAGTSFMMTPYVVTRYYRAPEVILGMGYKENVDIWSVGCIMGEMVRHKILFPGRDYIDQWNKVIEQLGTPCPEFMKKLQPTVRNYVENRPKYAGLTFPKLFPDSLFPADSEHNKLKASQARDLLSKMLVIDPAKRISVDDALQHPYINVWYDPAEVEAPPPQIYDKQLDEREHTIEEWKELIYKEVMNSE

Structure (SMILES) | ΔTm at 10 µM (MAPK10A) | ΔTm at 10 µM (AKT3A) | ΔTm at 10 µM (AAK1 (AAK1A)) | ΔTm at 10 µM (MST3A) | ΔTm RPS6KA1A (RPS6KA1A) | ΔTm at 10 µM (STK4 (STK4A)) | ΔTm at 10 µM (NEK1A) | ΔTm at 10 µM (DYRK1AA) | ΔTm at 10 µM (STK17BA) | ΔTm at 10 µM (MAP3K5A) | ΔTm CDC42BPAA (CDC42BPAA) | ΔTm at 10 µM (MELKA) | ΔTm at 10 µM (ABL1 (ABL1A)) | ΔTm at 10 µM (MST4A) | ΔTm at 10 µM (UKL3A (ULK3A)) | EC50 (SLK) | ΔTm at 10 µM (MAPK15A (MAPK15HSD)) | ΔTm at 10 µM (SRPK1A) | ΔTm at 10 µM (CAMKK2B)
COc1ccccc1CNC(=O)Nc1ccc2cc1OCCOCCNc1ccn3ncc-2c3n1 [compound 29] | 0.3 °C | 0.3 °C | 5.5 °C | -7.7 °C | 0,5 °C | 2.6 °C | -0.3 °C | -0.5 °C | 1.7 °C | 1 °C | 0,3 °C | 1 °C | 0.7 °C | 0.2 °C | 4.2 °C | > 50 µM | 3.3 °C | 0.2 °C | 1.5 °C
COc1cccc(CNC(=O)Nc2ccc3cc2OCCOCCNc2ccn4ncc-3c4n2)c1 [compound 30] | 0.5 °C | 0.2 °C | 6.3 °C | -5.1 °C | 0,6 °C | 3 °C | -0.2 °C | -0.4 °C | 1.8 °C | 1.5 °C | 0,2 °C | 1.3 °C | 1.5 °C | 0.3 °C | 4.4 °C | > 50 µM | 2.3 °C | 0.1 °C | 2 °C
COc1ccc(CNC(=O)Nc2ccc3cc2OCCOCCNc2ccn4ncc-3c4n2)cc1F [compound 32] | 0.8 °C | 0.8 °C | 6.3 °C | -6.4 °C | 0,8 °C | 4.4 °C | -0.4 °C | 0.6 °C | 3.4 °C | 2 °C | 0,1 °C | 1.4 °C | 1.7 °C | 1.2 °C | 5.9 °C | > 50 µM | 2.5 °C | 0 °C | 1.8 °C
COc1cc(CNC(=O)Nc2ccc3cc2OCCOCCNc2ccn4ncc-3c4n2)ccc1F [compound 33] | 0.7 °C | 0.9 °C | 6.4 °C | -5.3 °C | 0,5 °C | 3.8 °C | -0.1 °C | 0.9 °C | 2.7 °C | 2.8 °C | 0,1 °C | 2.1 °C | 1.5 °C | 1.2 °C | 4.5 °C | > 50 µM | 3.3 °C | 0 °C | 3.2 °C
C[C@H](NC(=O)Nc1ccc2cc1OCCOCCNc1ccn3ncc-2c3n1)c1ccccc1 [compound 34] | 0.1 °C | 0.4 °C | 5.9 °C | -7.8 °C | 0,4 °C | 2.7 °C | -0.4 °C | -0.1 °C | 2.7 °C | 0.8 °C | 0,1 °C | 1.3 °C | 1.3 °C | 0.4 °C | 4.1 °C | > 50 µM | 2.1 °C | -0.1 °C | 0.6 °C
CN1CCN(C(=O)Nc2ccc3cc2OCCOCCNc2ccn4ncc-3c4n2)CC1 [compound 35] | -0.7 °C | 0 °C | 7.7 °C | 0.4 °C | 0,7 °C | 0.9 °C | 0.4 °C | -1.5 °C | 3.4 °C | 1.7 °C | -0,6 °C | 2.2 °C | 1.4 °C | -0.4 °C | 2.7 °C | > 50 µM | 2 °C | 0.2 °C | 2.9 °C
